From ChEMBL document CHEMBL1126889, “Dopamine receptor modulation by a highly rigid spiro bicyclic peptidomimetic of Pro-Leu-Gly-NH2” (J Med Chem, 1993)
Residues, ends and D or L forms follow the SMILES beside them.

Legend:
[1] = target: T1, Dopamine receptor (Bos taurus) (UniProt Q95136+P20288); test: Tested for ability to enhance the binding of the dopamine receptor agonist [3H]ADTN to striatal dopamine receptors in vitro; format: protein assay
[2] = target: T1, Dopamine receptor (Bos taurus); test: Tested for ability to enhance the binding of the dopamine receptor agonist [3H]-ADTN to striatal dopamine receptors in vitro at 10 e-6 M; format: protein assay

Structure (SMILES)	Binding [1] [%]	Binding [2] [%]
CC(C)C[C@H](NC(=O)[C@@H]1CCCN1)C(=O)NCC(N)=O (H-Pro-Leu-Gly-NH2)	26	
NC(=O)[C@H]1CS[C@@H]2C[C@]3(CCCN3C(=O)C3CCCN3)C(=O)N12 (some centres not stated)		40
